In patent publication US20080200404A1, “Novel Antimalarial 9A-Carbamoyl-Aminoalkyl and 9A-Thiocarbamoyl-Aminoalkyl Azalides” (priority 2005, published 2008):
In brackets after ≈: the same amount, converted by molar mass.

How the values were obtained:
[1] = test system: Plasmodium falciparum TM91C235; assay: In vitro antimalarial [3H]-hypoxanthine incorporation assay, TM91C235; assay type: cell-based; details: Plasmodium falciparum; P. falciparum TM91C235 (multiple drug resistant isolate), 72 hours exposure
From the text: (§1) The in vitro screens for intrinsic antimalarial activity were based on modifications of the procedures described by Desjardins R E, Canfield C J, Haynes J D, Chulay J D. (Quantitative assessment of antimalarial activity in vitro by a semiautomated microdilution technique. Antimicrob Agents Chemother. 1979 December; 16(6):710-8.), Chulay J D, Haynes J D, Diggs C L. (Plasmodium falciparum: Assessment of in vitro growth by [3H]hypoxanthine incorporation. Exp. Parasitol. 1983 55:138-146.), and Milhous W K, Weatherly N F, Bowdre J H, Desjardins R E. (In vitro activities of and mechanisms of resistance to antifol antimalarial drugs. Antimicrob Agents Chemother. 1985 April; 27(4):525-30.). The system was limited to the assessment of the intrinsic activity against the erythrocytic asexual life cycle (blood schizontocides). Two Plasmodium falciparum clones from CDC/Indochina III (W-2) and CDC/Sierra Leone I (D-6) (Oduola A M, Weatherly N F, Bowdre J H, Desjardins R E. Plasmodium falciparum: cloning by single-erythrocyte micromanipulation and heterogeneity in vitro. Exp Parasitol. 1988 66(1):86-95.) were used for all assays. TM91C235, a multiple drug resistant isolate from Thailand, was used for the prescreening assay. W-2 is resistant to chloroquine, quinine, and pyrimethamine and susceptible to mefloquine. D-6 tends to be more resistant to mefloquine and susceptible to chloroquine, quinine, and pyrimethamine. All documents cited in this paragraph are incorporated by reference in their entirety.
(§2) All parasites were maintained in continuous long term cultures in RPMI-1640 medium supplemented with 6% washed human A positive (A+)(erythrocytes, 25 mM Hepes, […], and 10% heat inactivated A+human plasma or ALBUMAX® (lipid-rich bovine serum albumin; Invitrogen, Carlsbad, Calif.). All cultures and assays were conducted at 37° C. under an atmosphere of 5% CO2 and 5% O2, with a balance of N2.
The prescreening assay uses TM91C235 diluted at a 0.4% parasitemia in a 1% hematocrit in folic acid free and p-aminobenzoic acid free media RPMI-1640 and ALBUMAX®. One mg of the compound is typically dissolved in 100 μl of dimethyl sulfoxide (DMSO). The compound is further diluted in culture medium (FF) with ALBUMAX® for the first initial starting concentration. The rest of the stock drug solution was kept at −70° C. The isolate was preexposed, in duplicate, at three concentrations (25,000 ng/ml, 2,500 ng/ml, and 25 ng/ml) of the test compound for 48 hr in a 96-well microtiter plate (MTP) using the BIOMEK® 2000 automated laboratory workstation. Each MTP contains chloroquine as control to assess the relative activity of the compound and to monitor the response of TM91C235.
(§3) After the preincubation, [^3H]-hypoxanthine was added to each well of the MTP. (The assay relies on the incorporation of radiolabeled hypoxanthine by the parasites, which indicates reproduction, and inhibition of isotope incorporation was attributed to activity of known or candidate antimalarial drugs). After 72 hr of total incubation time, the MTP were frozen to lyse the erythrocytes and parasites. The parasite DNA was recovered by harvesting the lysate onto glass-fiber filter plates using a Packard FilterMate™ Cell Harvester. The radioactivity was counted on a Packard TopCount™ microplate scintillation counter. The results were recorded as counts per minutes (CPM) per well at each drug concentration divided by the arithmetic mean of the CPM from the three untreated infection parasite control wells.
The serial dilution assay was conducted using the same assay conditions and stock solution of the compound used for the preliminary screen, described above. Both the D-6 and the W-2 clones were used. The compounds were diluted two-fold over 11 different concentration ranges with a starting concentration that was based on the preliminary screen. […]

[2] = test system: Plasmodium falciparum clone CDC/Sierra Leone I (D-6); assay: In vitro antimalarial [3H]-hypoxanthine incorporation serial dilution assay, D6; assay type: cell-based; details: Plasmodium falciparum, D6, 72 h, P. falciparum D6, 72 hours exposure; read-out: IC50 D6
From the text: as §1, §2, §3
The serial dilution assay was conducted using the same assay conditions and stock solution of the compound used for the preliminary screen, described above. Both the D-6 and the W-2 clones were used. The compounds were diluted two-fold over 11 different concentration ranges with a starting concentration that was based on the preliminary screen. For each drug, the concentration response profile was determined and 50% inhibitory concentrations (IC50) were determined by using a non-linear, logistic dose response analysis program. […] For each assay, the IC50 for each clone was determined against the known antimalarials chloroquine and mefloquine. These control values established the compound's relative parasite susceptibility profile compared to known antimalarials. […]
The in vitro potency of the compounds has been compared with that of azithromycin to better gauge compounds suitable for further testing. As described above, parasites were exposed for 72 hours. Data from the in vitro potency tests of azithromycin against the three parasite strains have been averaged, and these numbers have been used for identification of “active” macrolide compounds.

| SMILES | IC50 [1] [µg/mL] | IC50 [2] [µg/mL] |
| --- | --- | --- |
| CC[C@H]1OC(=O)[C@H](C)[C@@H](O[C@H]2C[C@@](C)(OC)[C@@H](O)[C@H](C)O2)[C@H](C)[C@@H](O[C@@H]2O[C@H](C)C[C@H](N(C)C)[C@H]2O)[C@](C)(O)C[C@@H](C)CN(CCCNC(=O)Nc2cccc(SC)c2)[C@H](C)[C@@H](O)[C@]1(C)O [Example 71] | 0.131 (≈ 0.137 µM) | 0.318 (≈ 0.332 µM) |
| CC[C@H]1OC(=O)[C@H](C)[C@@H](O[C@H]2C[C@@](C)(OC)[C@@H](O)[C@H](C)O2)[C@H](C)[C@@H](O[C@@H]2O[C@H](C)C[C@H](N(C)C)[C@H]2O)[C@](C)(O)C[C@@H](C)CN(CCCNC(=O)Nc2cc(C(=O)OC)cc(C(=O)OC)c2)[C@H](C)[C@@H](O)[C@]1(C)O [Example 72] | 0.422 (≈ 0.411 µM) | 0.665 (≈ 0.648 µM) |
| CC[C@H]1OC(=O)[C@H](C)[C@@H](O[C@H]2C[C@@](C)(OC)[C@@H](O)[C@H](C)O2)[C@H](C)[C@@H](O[C@@H]2O[C@H](C)C[C@H](N(C)C)[C@H]2O)[C@](C)(O)C[C@@H](C)CN(CCCNC(=O)Nc2ccc(C)cc2)[C@H](C)[C@@H](O)[C@]1(C)O [Example 73] | 0.128 (≈ 0.139 µM) | 0.305 (≈ 0.33 µM) |
| CC[C@H]1OC(=O)[C@H](C)[C@@H](O[C@H]2C[C@@](C)(OC)[C@@H](O)[C@H](C)O2)[C@H](C)[C@@H](O[C@@H]2O[C@H](C)C[C@H](N(C)C)[C@H]2O)[C@](C)(O)C[C@@H](C)CN(CCCNC(=O)NCC2CCCCC2)[C@H](C)[C@@H](O)[C@]1(C)O [Example 74] | 0.133 (≈ 0.142 µM) | 0.568 (≈ 0.609 µM) |
| CC[C@H]1OC(=O)[C@H](C)[C@@H](O[C@H]2C[C@@](C)(OC)[C@@H](O)[C@H](C)O2)[C@H](C)[C@@H](O[C@@H]2O[C@H](C)C[C@H](N(C)C)[C@H]2O)[C@](C)(O)C[C@@H](C)CN(CCCNC(=O)Nc2ccc(C)cc2C)[C@H](C)[C@@H](O)[C@]1(C)O.O=CO [Example 75] | 0.229 | 0.479 |
| CC[C@H]1OC(=O)[C@H](C)[C@@H](O[C@H]2C[C@@](C)(OC)[C@@H](O)[C@H](C)O2)[C@H](C)[C@@H](O[C@@H]2O[C@H](C)C[C@H](N(C)C)[C@H]2O)[C@](C)(O)C[C@@H](C)CN(CCCNC(=O)Nc2ccc(F)c(F)c2)[C@H](C)[C@@H](O)[C@]1(C)O.O=CO [Example 76] | 0.126 | 0.298 |
| CC[C@H]1OC(=O)[C@H](C)[C@@H](O[C@H]2C[C@@](C)(OC)[C@@H](O)[C@H](C)O2)[C@H](C)[C@@H](O[C@@H]2O[C@H](C)C[C@H](N(C)C)[C@H]2O)[C@](C)(O)C[C@@H](C)CN(CCCNC(=O)Nc2ccc(Cl)cc2)[C@H](C)[C@@H](O)[C@]1(C)O.O=CO [Example 77] | 0.0896 | 0.186 |
| CC[C@H]1OC(=O)[C@H](C)[C@@H](O[C@H]2C[C@@](C)(OC)[C@@H](O)[C@H](C)O2)[C@H](C)[C@@H](O[C@@H]2O[C@H](C)C[C@H](N(C)C)[C@H]2O)[C@](C)(O)C[C@@H](C)CN(CCCNC(=O)NC(C)(C)CC(C)(C)C)[C@H](C)[C@@H](O)[C@]1(C)O.O=CO [Example 78] | 0.182 | 0.267 |
| CC[C@H]1OC(=O)[C@H](C)[C@@H](O[C@H]2C[C@@](C)(OC)[C@@H](O)[C@H](C)O2)[C@H](C)[C@@H](O[C@@H]2O[C@H](C)C[C@H](N(C)C)[C@H]2O)[C@](C)(O)C[C@@H](C)CN(CCCNC(=S)Nc2ccc(OCc3ccccc3)cc2)[C@H](C)[C@@H](O)[C@]1(C)O.O=CO [Example 115] | 0.172 | 0.269 |
| CC[C@H]1OC(=O)[C@H](C)[C@@H](O[C@H]2C[C@@](C)(OC)[C@@H](O)[C@H](C)O2)[C@H](C)[C@@H](O[C@@H]2O[C@H](C)C[C@H](N(C)C)[C@H]2O)[C@](C)(O)C[C@@H](C)CN(CCCNC(=S)NC2CCCCCCCCCCC2)[C@H](C)[C@@H](O)[C@]1(C)O.O=CO [Example 116] | 0.149 | 0.281 |
| CC[C@H]1OC(=O)[C@H](C)[C@@H](O[C@H]2C[C@@](C)(OC)[C@@H](O)[C@H](C)O2)[C@H](C)[C@@H](O[C@@H]2O[C@H](C)C[C@H](N(C)C)[C@H]2O)[C@](C)(O)C[C@@H](C)CN(CCCNC(=S)NCc2ccc3c(c2)CCC3)[C@H](C)[C@@H](O)[C@]1(C)O.O=CO [Example 117] | 0.223 | 0.329 |
| CC[C@H]1OC(=O)[C@H](C)[C@@H](O[C@H]2C[C@@](C)(OC)[C@@H](O)[C@H](C)O2)[C@H](C)[C@@H](O[C@@H]2O[C@H](C)C[C@H](N(C)C)[C@H]2O)[C@](C)(O)C[C@@H](C)CN(CCCNC(=S)Nc2ccc(/N=N/c3ccccc3)cc2)[C@H](C)[C@@H](O)[C@]1(C)O [Example 118] | 0.0993 (≈ 0.0963 µM) | 0.111 (≈ 0.107 µM) |
| CC[C@H]1OC(=O)[C@H](C)[C@@H](O[C@H]2C[C@@](C)(OC)[C@@H](O)[C@H](C)O2)[C@H](C)[C@@H](O[C@@H]2O[C@H](C)C[C@H](N(C)C)[C@H]2O)[C@](C)(O)C[C@@H](C)CN(CCCNC(=S)NC(c2ccccc2)c2ccccc2)[C@H](C)[C@@H](O)[C@]1(C)O [Example 129] | 0.056 (≈ 0.055 µM) | 0.222 (≈ 0.218 µM) |
| CCOC(=O)CCN(CCCN1C[C@H](C)C[C@@](C)(O)[C@H](O[C@@H]2O[C@H](C)C[C@H](N(C)C)[C@H]2O)[C@@H](C)[C@H](O[C@H]2C[C@@](C)(OC)[C@@H](O)[C@H](C)O2)[C@@H](C)C(=O)O[C@H](CC)[C@@](C)(O)[C@H](O)[C@H]1C)C(=S)NCCc1ccccc1 [Example 160, 9-Deoxo-9-dihydro-9a-{N′-[β-(ethoxycarbonyl)ethyl]-N′-[β-(phenylethyl)thiocarbamoyl]-γ-aminopropyl}-9a-aza-9a-homoerythromycin A] | 0.0683 (≈ 0.0647 µM) | 0.153 (≈ 0.145 µM) |
| CCOC(=O)CCN(CCCN1C[C@H](C)C[C@@](C)(O)[C@H](O[C@@H]2O[C@H](C)C[C@H](N(C)C)[C@H]2O)[C@@H](C)[C@H](O[C@H]2C[C@@](C)(OC)[C@@H](O)[C@H](C)O2)[C@@H](C)C(=O)O[C@H](CC)[C@@](C)(O)[C@H](O)[C@H]1C)C(=S)NCCCc1ccccc1 [Example 161, 9-Deoxo-9-dihydro-9a-{N′-[β-(ethoxycarbonyl)ethyl]-N′-[γ-(phenylpropyl)thiocarbamoyl]-γ-aminopropyl}-9a-aza-9a-homoerythromycin A] | 0.054 (≈ 0.0505 µM) | 0.142 (≈ 0.132 µM) |
| CCOC(=O)CCN(CCCN1C[C@H](C)C[C@@](C)(O)[C@H](O[C@@H]2O[C@H](C)C[C@H](N(C)C)[C@H]2O)[C@@H](C)[C@H](O[C@H]2C[C@@](C)(OC)[C@@H](O)[C@H](C)O2)[C@@H](C)C(=O)O[C@H](CC)[C@@](C)(O)[C@H](O)[C@H]1C)C(=S)NCc1ccccc1 [Example 162, 9-Deoxo-9-dihydro-9a-{N′-[β-(ethoxycarbonyl)ethyl]-N′-benzylthiocarbamoyl-γ-aminopropyl]-9a-aza-9a-homoerythromycin A] | 0.0693 (≈ 0.0665 µM) | 0.104 (≈ 0.1 µM) |
| CCOC(=O)CCN(CCCN1C[C@H](C)C[C@@](C)(O)[C@H](O[C@@H]2O[C@H](C)C[C@H](N(C)C)[C@H]2O)[C@@H](C)[C@H](O[C@H]2C[C@@](C)(OC)[C@@H](O)[C@H](C)O2)[C@@H](C)C(=O)O[C@H](CC)[C@@](C)(O)[C@H](O)[C@H]1C)C(=O)NC(C)c1cccc2ccccc12 (stereo partly shown) [Example 163] | 0.0679 (≈ 0.0623 µM) | 0.135 (≈ 0.124 µM) |
